Test results published in patent US8129425B2, “Small organic molecule regulators of cell proliferation” (Curis, Inc., priority 2000, dated 2012).

Assays:
[1] = system: hedgehog-responsive Gli-Luc reporter-construct; assay: Gli-Luc hedgehog pathway reporter assay in [10T1/2(s12)] cells; format: cell-based, murine; conditions: Table 1
In short: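 10T1/2(s12) cells carrying a Gli-Luc reporter, switched to 0.5% FBS medium, then exposed to compound for 24 hr; luciferase read by luminescence. Screen A: 1-2 μM with Hh protein at 0.01 μg/ml (about EC30); Screen B: 5 μM without Hh. Activity expressed as percent of full Hh-induced signal.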

[2] = system: malonate induced striatal lesion; assay: Rat malonate lesion model of Huntington's disease; format: in vivo; conditions: 300 μM in Alzet pump into brain ventricles, 1 μl/hr for 6 days pretreatment; vs vehicle, p=0.0159
Method: Malonate is a mitochondrial toxin and defects in mitochondrial energy metabolism are thought to play a role in the pathology of neurodegenerative diseases such as HD. When malonate is injected into the rat striatum a lesion forms in this brain region. The experiments described below tested whether the Hh agonist would reduce the size of the malonate induced striatal lesion. Hh agonist was administered directly into the brain ventricles of male SD rats via a cannula attached to an osmotic Alzet pump. […] After 6 days of pretreatment with compound, malonate was injected directly into the brain striatum and the Alzet pump was removed. Four days later rats were euthanized and the brains were sliced into 2 mm slabs. The slices were placed in a 2% solution (TTC) that stains living tissue red and the striatal infarct white. The size of the infarct (% infarct) was measured using image analysis software and the data were analyzed by one-way ANOVA followed by appropriate post-hoc tests (p<0.05).

SVZ precursor cells = assay: SVZ precursor cell proliferation (BrdU) after direct brain administration in adult rats; format: in vivo, rat; conditions: 200 μM in pump into brain ventricles, 0.5 μl/hr for 6 days; p<0.05
Method: Hh agonist was administered directly into the brain ventricles of male SD rats via a cannula attached to an osmotic Alzet pump. The pumps were filled with either vehicle (5% 2-hydroxypropyl-B-cyclodextrin, 4.35% Mannitol, 0.2% DMSO) or Hh agonist (U″ ranging from 10-600 μM) and the pump released compound into the ventricles at constant rate of 0.5 μl/hr for 6 days. After 6 days of pretreatment with compound, animals were injected with Bromodeoxyuridine (BrdU, 50 mg/kg, ip) to label dividing cells. Two hours after BrdU treatment, rats were euthanized and perfused with fixative. Brains were collected and processed for BrdU immunohistochemistry. The number of BrdU-immunoreactive (BrdU-IR) cells was then counted in the SVZ on both the sides of the brain with the cannula (ipsilateral) and without (contralateral).

## CN[C@H]1CC[C@H](N(Cc2cccc(-c3ccncc3)c2)C(=O)c2sc3c(F)ccc(F)c3c2Cl)CC1 [U′′]
[1]
  EC50: < 5 nM
[2]
  size of malonate-induced infarct (% infarct): reduced the size of the malonate-induced infarct
SVZ precursor cells
  number of BrdU-IR cells in SVZ: dramatically increased on both sides of the brain
